Source: patent US5512581A, “Iminoxycarboxylates and derivatives as inhibitors of leukotriene biosynthesis” (Abbott Laboratories, priority 1995, dated 1996)

Assays:
5-Lipoxygenase = test: Inhibition of calcium ionophore-induced LTB4 formation in human polymorphonuclear leukocytes (PMNL); type: cell-based; details: stimulated LTB4 formation in human PMNL; calcium ionophore 8.3 μM, 15 min preincubation
Description: Inhibition of leukotriene biosynthesis was evaluated in an assay involving calcium ionophore-induced LTB4 expressed in human polymorphornuclear leukocytes (PMNL). Human PMNL isolated from heparinized (20 USP units/mL) venous blood (25 mL) obtained from healthy volunteers was layered over an equal volume of Ficoll-Hypaque Mono-Poly Resolving Medium (ICN Flow, Costa Mesa, Calif.) and centrifugated at 400 x g for 40 min at 20° C. The PMNL was collected, erythrocytes lysed and washed 2x and suspended at 1.0×10^7 cells/mL in Earle's balanced salt solution with 17 mM Earle's HEPES. Aliquots of the cell suspension were preincubated with test compounds dissolved in DMSO (final concentration <2%) for 15 min. and stimulated with calcium ionophore (final concentration 8.3 μM) for 10 min. at 37° C. Incubations were stopped with the addition of two volumes of ice-cold methanol followed by centrifuging the cell suspensions at 4° C. for 10 min at 450 x g. The mount of LTB4 in the methanol extract was analyzed by enzyme-linked immunoassay or by HPLC analysis.

leukotriene biosynthesis = test: In vivo leukotriene inhibition in rat peritoneal anaphylaxis model; details: oral gavage 1 h before antigen challenge; for % Inhibition (dose): 30 μmol/kg
Description: Inhibition of the biosynthesis of leuktrienes in vivo after oral administration of compound was determined using a rat peritoneal anaphylaxis model in a similar manner as that described by Young and coworkers (Young, P. R.; Dyer, R. D.; Carter, G. W. Fed. Proc., Fed. Am. Soc. Exp. Biol. 1985, 44, 1185). In this model rats were injected intraperitoneally (ip) with rabbit antibody to bovine serum albumin (BSA) and three hours later injected ip with BSA to induce an antgen-antibody response. Rats were sacrificed 15 minutes after this challenge and the peritoneal fluids were collected and analyzed for leukotriene levels. Test compounds were administered by gavage one hour prior to the antigen challenge. Percent inhibition values were determined by comparing the treatment group to the mean of the control group.

leukotriene = test: In vivo leukotriene inhibition in rat pleural inflammation (A23187 ionophore-induced); details: dosed in 0.2% methocel 1 h before intrapleural A23187, male rats; for ED50: Rattus norvegicus
Description: Pleural inflammation was induced in male rats following the method of Rao et al (Rao, T. S., Currie, J. L., Shaffer, A. F., Isakson, P. C., (1993) Evaluation of 5-lipoxygenase Inhibitors, Zileuton, A-78773 and ICI D-2138 in an Ionophore (A-23 187) Induced Pleural Inflammation Model in the Rat. Life Sciences, 53: 147). Rats were dosed with experimental compounds in 0.2% methocel one hour prior to the intrapleural injection of the calcium ionophore, A23 187. The rats where lightly anesthetized with Pentrane (Abbott Laboratories) and injected intrapleurally with 0.5 ml of 2% ethanol in injectable saline (Abbott Laboratories) containing 20 ug of A23187 (Cal BioChem-Novabiochem). Thirty minutes later the animals were euthanised and the pleural cavities lavaged with ice cold saline (Abbott Laboratories). The lavage fluid was then added to ice cold methanol (final methanol concentration 30%) to lyse cells and precipitate protein. Eicosanoids were determined by enzyme immunoassay by standard methods.

| SMILES | IC50 (5-Lipoxygenase) [µM] | other results |
| --- | --- | --- |
| O=C(O)c1ccc(C=NOC(c2ccc(OCc3ccc4ccccc4n3)cc2)C2CCCCC2)cc1 (stereo not shown) [Example 6, O-Cyclohexyl-(4-(2-quinolylmethoxy)phenyl)methyl!-4-carboxybenzaldoxime] | 0.032 | – |
| O=C(O)C=NOC(CCCc1ccc(Cl)cc1)c1ccc(OCc2ccc3ccccc3n2)cc1 (stereo not shown) [Example 12, 4-(4-Chlorophenyl)-1-(4-(2-quinolylmethoxy)phenyl) butyl!iminoxyacetic acid] | 0.055 | – |
| O=C(O)c1ccc(C=NOC(CC2CCCCC2)c2ccc(OCc3cscn3)cc2)cc1 (stereo not shown) [Example 19, O-2-cyclohexyl-1-(4-(4-thiazolylmethoxy)phenyl)eth-1-yl!-4-carboxybenzaldoxime] | – | % Inhibition (dose) (leukotriene biosynthesis): 81% |
| COC(=O)/C(C)=N\OC(c1ccc(OCc2ccc3ccccc3n2)cc1)C1CCCCC1 (stereo not shown) [Example 30, Cyclohexyl-(4-(2-quinolylmethoxy)phenyl)methyl!-Z-2-iminoxypropionic acid methyl ester] | 0.17 | – |
| C/C(=N/OC(c1ccc(OCc2ccc3ccccc3n2)cc1)C1CCCCC1)C(=O)O (stereo not shown) [Example 32, cyclohexyl-(4-(2-quinolylmethoxy)phenyl)methyl!-Z-2-iminoxypropionic acid] | 0.17 | – |
| COC(=O)/C(C)=N/O[C@@H](c1ccc(OCc2ccc3ccccc3n2)cc1)C1CCCCC1 [Example 34] | 0.47 | – |
| C/C(=N\O[C@@H](c1ccc(OCc2ccc3ccccc3n2)cc1)C1CCCCC1)C(=O)O [Example 35, (R)-Cyclohexyl-(4-(2-quinolylmethoxy)phenyl)methyl!-E-2-iminoxypropionic acid] | 0.07 | – |
| COC(=O)/C(C)=N/O[C@H](c1ccc(OCc2ccc3ccccc3n2)cc1)C1CCCCC1 [Example 36, (S)-Cyclohexyl-(4-(2-quinolylmethoxy)phenyl)methyl!-E-2-iminoxypropionic acid methyl ester] | 0.05 | – |
| C/C(=N\OC(Cc1ccccc1)c1ccc(OCc2ccc3ccccc3n2)cc1)C(=O)O (stereo not shown) [Example 42, 2-phenyl-1-(4-(2-quinolylmethoxy)phenyl)eth-1-yl!-E-2-iminoxy propionic acid] | < 0.1 | – |
| C/C(=N\OC(c1ccc(OCc2ccc3ccccc3n2)cc1)c1cccs1)C(=O)O (stereo not shown) [Example 43, 2-thienyl-(4-(2-quinolylmethoxy)phenyl)methyl!-E-2-iminoxy propionic acid] | < 0.1 | – |
| C/C(=N\OC(c1ccc(OCc2ccc3ccccc3n2)cc1Cl)C1CCCCC1)C(=O)O (stereo not shown) [Example 44, Cyclohexyl-(2-chloro4-(2-quinolylmethoxy)phenyl)methyl!-E-2-iminoxypropionic acid] | < 0.1 | – |
| C/C(=N\OC(c1ccc(OCc2ccc3ccccc3n2)c(Cl)c1)C1CCCCC1)C(=O)O (stereo not shown) [Example 45, Cyclohexyl-(3-chloro-4-(2-quinolylmethoxy)phenyl)methyl!-E-2-iminoxypropionic acid] | < 0.1 | ED50 (leukotriene): 1.2 mg/kg |
| C/C(=N\OC(CC(C)(C)c1ccccc1)c1ccc(OCc2ccc3ccccc3n2)cc1)C(=O)O (stereo not shown) [Example 48, 3-methyl-3-phenyl-1-(4-(2-quinolylmethoxy)phenyl)but-1-yl!-E-2-iminoxypropionic acid] | < 0.1 | ED50 (leukotriene): 2 mg/kg |
| CC(C)(CC(O/N=C/C(=O)O)c1ccc(OCc2ccc3ccccc3n2)cc1)c1ccccc1 (stereo not shown) [Example 49, 3-methyl-3-phenyl-1-(4-(2-quinolylmethoxy)phenyl)but-1-yl!-E-2-iminoxyacetic acid] | < 0.1 | – |
| CCCCC(O/N=C(\C)C(=O)O)c1ccc(OCc2ccc3ccccc3n2)cc1 (stereo not shown) [Example 50, 4-(2-quinolylmethoxy)phenylpent-1-yl!-E-2-iminoxypropionic acid] | < 0.1 | – |
| CCCCC(O/N=C/C(=O)O)c1ccc(OCc2ccc3ccccc3n2)cc1 (stereo not shown) [Example 51] | < 0.1 | – |
| CC(=NOCc1ccc(OCc2ccc3ccccc3n2)cc1Cl)C(=O)O [Example 57, 2-chloro-(4-(2-quinolylmethoxy)phenyl)methyl!-2-iminoxy propionic acid] | < 0.1 | – |
| CC(=NOC(c1ccc(OCc2ccc3ccccc3n2)cc1)C1CCCCCC1)C(=O)O (stereo not shown) [Example 58, Cycloheptyl-(4-(2-quinolylmethoxy)phenyl)methyl!-2-iminoxy propionic acid] | < 0.1 | – |
| C/C(=N\OC[C@@H](c1ccc(OCc2ccc3ccccc3n2)cc1)C1CCCC1)C(=O)O [Example 62] | 0.036 | – |

Further molecules by falling IC50 (5-Lipoxygenase), results first:

| IC50 (5-Lipoxygenase) [µM] | SMILES | other results |
| --- | --- | --- |
| 0.03 | CC(=NOCC(c1ccc(OCc2ccc3ccccc3n2)cc1)C1CCCCC1)C(=O)O (stereo not shown) [Example 55, Cyclohexyl-1-(4-(2-quinolylmethoxy)phenyl)eth-2-yl!-2-iminoxy propionic acid] | – |
| 0.025 | COC(=O)/C(C)=N/OC(c1ccc(OCc2ccc3ccccc3n2)cc1)C1CCCCC1 (stereo not shown) [Example 31, Cyclohexyl-(4-(2-quinolylmethoxy)phenyl)methyl!-E-2-iminoxypropionic acid methyl ester] | – |
| 0.021 | O=C(O)C=NOC(c1ccc(OCc2ccc3ccccc3n2)cc1)C1CCCCC1 (stereo not shown) [Example 1, Cyclohexyl-(4-(2-quinolylmethoxy)phenyl)methyl!iminoxyacetic acid] | % Inhibition (dose) (leukotriene biosynthesis): 82% |
| 0.017 | O=C(O)/C=N/OC(c1ccc(OCc2ccc3ccccc3n2)cc1)C1CCCCC1 (stereo not shown) [Example 40, Cyclohexyl-(4-(2-quinolylmethoxy)phenyl)methyl!-E-iminoxyacetic acid] | – |
| 0.015 | C/C(=N\OC(c1ccc(OCc2ccc3ccccc3n2)cc1)C1CCCCC1)C(=O)O (stereo not shown) [Example 33, cyclohexyl-(4-(2-quinolylmethoxy)phenyl)methyl!-E-2-iminoxypropionic acid] | – |
| 0.008 | O=C(O)C=NOCC(c1ccc(OCc2ccc3ccccc3n2)cc1)C1CCCCCC1 (stereo not shown) [Example 27, 2-Cycloheptyl-2-(4-(2-quinolylmethoxy)phenyl)eth-1-yl!iminoxyacetic acid] | ED50 (leukotriene biosynthesis): 0.7 mg/kg |
| 0.006 | CC(=NOC(CC1CCCCC1)c1ccc(OCc2ccc3ccccc3n2)cc1)C(=O)O (stereo not shown) [Example 15, 2-Cyclohexyl-1-(4-(2-quinolylmethoxy)phenyl)eth-1-yl!-2-iminoxypropionic acid] | – |
| 0.006 | C/C(=N\O[C@H](c1ccc(OCc2ccc3ccccc3n2)cc1)C1CCCCC1)C(=O)O [Example 37, (S)-Cyclohexyl-(4-(2-quinolylmethoxy)phenyl)methyl!-E-2-iminoxypropionic acid] | – |
| 0.005 | O=C(O)C=NOCC(c1ccc(OCc2ccc3ccccc3n2)cc1)C1CCCCC1 (stereo not shown) [Example 26] | – |
| 0.005 | CC(C)(C=NOCC(c1ccc(OCc2ccc3ccccc3n2)cc1)C1CCCCCC1)C(=O)O (stereo not shown) [Example 28, 2-cycloheptyl-2-(4-(2-quinolylmethoxy)phenyl)eth-1-yl!-3-iminoxy-2,2-dimethylpropionic acid] | – |
| 0.004 | CC(=NOC(c1ccc(OCc2ccc3ccccc3n2)cc1)C1CCCCC1)C(=O)O (stereo not shown) [Example 2, Cyclohexyl-(4-(2-quinolylmethoxy)phenyl)methyl!-2-iminoxy propionic acid] | ED50 (leukotriene biosynthesis): 1.2 mg/kg; % Inhibition (dose) (leukotriene; 30 μmol/kg): 89% |
| 0.004 | O=C(O)c1ccc(C=NOC(CC2CCCCC2)c2ccc(OCc3ccc4ccccc4n3)cc2)cc1 (stereo not shown) [Example 14, O-2-Cyclohexyl-1-(4-(2-quinolylmethoxy)phenyl)eth-1-yl!-4-carboxybenzaldoxime] | – |
